Columns and labels:
[1] = tested on: leukocyte extravasation signaling; assay: Hepatic gene expression profiling (RNA sequencing, pathway analysis) in APOE*3Leiden.CETP mice; format: in vivo
Description: This experiment was performed to evaluate the effects of OCA and fenofibrate, alone or in combination, on the development of diet induced NASH and liver fibrosis in APOE*3Leiden.CETP transgenic mice. Hepatic gene expression profiling and subsequent pathway analysis were performed to determine whether the combination regulates novel genes not regulated by either monotherapy treatment, and/or more strongly regulates genes also impacted by the monotherapy.
Mice were fed a high fat chow (HFC) diet for […]. After 15 weeks on the HFC diet, HFC mice were matched into 7 groups based on age, body weight, plasma cholesterol and triglycerides after 4 h fasting. Mice were treated with of OCA and fenofibrate, alone or in combination beginning at week 15 and sacrificed at week 25 in an unfasted state. One week before sacrifice, mice were labeled with D20, by i.p. injection of a bolus of D20 and subsequent addition of 4% D20 to the drinking water. Plasma (EDTA) was obtained by heart puncture and stored at −70° C. The liver was weighed and 4 pieces of liver were isolated: 1 piece (medial lobe) was fixed in 10% formalin (for NASH and fibrosis histology) and 3 pieces (sinister lobe) were snap-frozen in liquid N2 and stored individually at −70° C.
Nucleic acid extraction was performed as described previously in detail (Verschuren et al., 2014). Briefly, total RNA was extracted from individual liver samples using glass beads and RNAzol (Campro Scientific, Veenendaal, The Netherlands). RNA concentration and quality was determined using the Fragment Analyzer (Advanced Analytical Technologies, USA) and the RNA 6000 Nano Lab-on-a-Chip kit and a Bioanalyzer 2100 (Agilent Technologies, Amstelveen, The Netherlands). All samples met the quality requirements and were used in the RNA sequencing procedure.
The NEBNext Ultra Directional RNA library Prep Kit for Illumina was used to process the samples. The sample preparation was performed according to the protocol “NEBNext Ultra Directional RNA Library Prep Kit for Illumina” (NEB #E7420S/L). Briefly, mRNA was isolated from total RNA using oligo-dT magnetic beads. After fragmentation of the mRNA, a cDNA synthesis was performed. This was used for ligation of sequencing adapters and PCR amplification of the resulting product. The quality and yield after sample preparation was measured with the Fragment Analyzer (Advanced Analytical Technologies, USA). The size of the resulting products was consistent with the expected size distribution (a broad peak between 300-500 bp).
Clustering and DNA sequencing using the Illumina […] was performed according manufacturer's protocols. Data was generated using single-end read sequencing protocol obtaining approx. 15 million reads per sample and 75 bp per read. Image analysis, base calling, and quality check was performed with the Illumina data analysis pipeline RTA v2.4.11 to generate the raw data (*.fastq-files).
The reads were mapped to the reference sequence Mus musculus GRCm38.p3 using a short read aligner based on Burrows-Wheeler Transform. The default mismatch rate of 2% (3 mismatches in a read of 150 bases) was used. Based on the mapped read locations in the alignment files (*.bam-files) the frequency of how often a read was mapped on a transcript was determined. The counts were saved to count-files, which served as input for downstream mRNA-seq differential expression analysis. The read counts were loaded into the DESeq package, a statistical package within the R platform. […]

[2] = tested on: patients with non-cirrhotic, non-alcoholic steatohepatitis; assay: Subanalysis of clinical trial: concomitant statin use and LDL cholesterol; format: in vivo, humans; conditions: patients on statins at baseline; up to Week 72
Description: A subanalysis of the data obtained in Example 9 was performed to assess the effect of statins on low density lipoprotein cholesterol (LDL-C) levels. The aims of these secondary analyses were to determine the effect of OCA versus placebo in the subgroup of patients with more severe NASH and to assess the effects of concomitant statin use on serum LDL cholesterol.
The following calculations were performed for OCA treated subjects in Groups A, B, and C. • Mean and median characteristics listed below will be evaluated at baseline and at Week 72. • Laboratory values: LDL-C, high density lipoprotein cholesterol (HDL-C), alanine and aspartate aminotransferase, gamma glutamyl transferase • Age • Gender: percentage male, percentage female • Percentage diabetic • Histology: steatosis, ballooning, inflammation, fibrosis • Mean and median percentage change at Week 72 from baseline of the above characteristics will be evaluated. Results

[3] = tested on: intestinal tissue of two animal models of inflammatory bowel disease (DSS and trinitrobenzene sulfonic acid); conditions: DSS and trinitrobenzene sulfonic acid models (Gadaleta 2011); cited from earlier work
[4] = tested on: rat aortic smooth muscle cell; conditions: Li 2007; cited from earlier work
[5] = tested on: kidney of a rat model of Type 1 diabetes; conditions: rat model of Type 1 diabetes (Wang 2010); cited from earlier work

CC[C@H]1[C@@H](O)[C@@H]2[C@H](CC[C@]3(C)[C@@H]([C@H](C)CCC(=O)O)CC[C@@H]23)[C@@]2(C)CC[C@@H](O)C[C@@H]12 [OCA, 3α,7α-dihydroxy-6α-ethyl-5β-cholan-24-oic acid]
number of uniquely regulated genes ([1]; Venn diagram, OCA 10 mg/kg, fenofibrate 10 mg/kg, combination): 109 | enrichment analysis of canonical (inflammatory) pathways ([1]; liver mRNA, OCA 10 mg/kg and/or low dose fenofibrate vs HFC): regulated several inflammatory processes | regulation of genes of leukocyte extravasation signaling (leukocyte and endothelial cells) ([1]; liver mRNA, OCA and/or low dose fenofibrate, relative to vehicle group): downregulates numerous genes | LDL cholesterol during OCA treatment [2]: increased | inflammatory infiltrates in intestinal tissue [3]: inhibition of inflammatory infiltrates | pharmacologically-induced rat aortic smooth muscle cell migration [4]: abolished | production of iNOS or COX-2 induced by IL-1β [4]: inhibited | inflammatory infiltrates in kidney [5]: inhibition of inflammatory infiltrates
